Results on 3 molecules are retold here after BindingDB's records for patent US20250163072 (Hoffmann-La Roche, 2025).

The target of the experiment is GTPase KRas [G12C]/Serine/threonine-protein kinase B-raf (Human, UniProt P01116+P15056, G12C). As to the kind of experiment: KRAS G12C-BRAF NanoBit Assay. Here is the method: HEK293 cells were grown and maintained using DMEM medium (Thermo Fisher Scientific) with 10% fetal bovine serum and 1% penicillin/streptomycin. Both KRAS G12C and BRAF RBD were cloned into the NanoBit vectors ([…] vectors system, Promega) with the orientations SmBit-KRAS G12C and BRAF RBD-LgBit, respectively, and co-transfected into HEK293 cells. Cells were then selected with 100 μg/mL Hygromycin B (10687010, Thermo Fisher) and Blasticidin (5 μg/mL) for 4 weeks to get the stable cell pool. On the day of the assay, 75 nL of compound solution was presented in a 384-well assay plate as a 16-point 3-fold dilution starting from a final concentration of 30 μM in DMSO. Then cells were seeded at 10,000 cells/25 μL/well in a 384-well plate. After 3 hours of incubation, 6 μL of volume of Nano-Glo Live Cell Substrate (Promega) was added into each well. Monitor luminescence using ultra384 model in Envision at 20 minutes. Compounds that facilitate disruption of the KRAS G12C-BRAF RBD complex were identified as those eliciting a decrease of luminescence relative to DMSO control wells.
GTPase KRas [G12C]/Serine/threonine-protein kinase B-raf, sequence (P01116 whole entry G12C): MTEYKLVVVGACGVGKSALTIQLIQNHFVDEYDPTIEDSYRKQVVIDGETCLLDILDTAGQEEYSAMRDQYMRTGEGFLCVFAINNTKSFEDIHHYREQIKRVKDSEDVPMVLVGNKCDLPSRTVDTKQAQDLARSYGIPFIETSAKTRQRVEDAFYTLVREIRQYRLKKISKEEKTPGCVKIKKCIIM
GTPase KRas [G12C]/Serine/threonine-protein kinase B-raf, sequence (P15056 2-766 limits assumed): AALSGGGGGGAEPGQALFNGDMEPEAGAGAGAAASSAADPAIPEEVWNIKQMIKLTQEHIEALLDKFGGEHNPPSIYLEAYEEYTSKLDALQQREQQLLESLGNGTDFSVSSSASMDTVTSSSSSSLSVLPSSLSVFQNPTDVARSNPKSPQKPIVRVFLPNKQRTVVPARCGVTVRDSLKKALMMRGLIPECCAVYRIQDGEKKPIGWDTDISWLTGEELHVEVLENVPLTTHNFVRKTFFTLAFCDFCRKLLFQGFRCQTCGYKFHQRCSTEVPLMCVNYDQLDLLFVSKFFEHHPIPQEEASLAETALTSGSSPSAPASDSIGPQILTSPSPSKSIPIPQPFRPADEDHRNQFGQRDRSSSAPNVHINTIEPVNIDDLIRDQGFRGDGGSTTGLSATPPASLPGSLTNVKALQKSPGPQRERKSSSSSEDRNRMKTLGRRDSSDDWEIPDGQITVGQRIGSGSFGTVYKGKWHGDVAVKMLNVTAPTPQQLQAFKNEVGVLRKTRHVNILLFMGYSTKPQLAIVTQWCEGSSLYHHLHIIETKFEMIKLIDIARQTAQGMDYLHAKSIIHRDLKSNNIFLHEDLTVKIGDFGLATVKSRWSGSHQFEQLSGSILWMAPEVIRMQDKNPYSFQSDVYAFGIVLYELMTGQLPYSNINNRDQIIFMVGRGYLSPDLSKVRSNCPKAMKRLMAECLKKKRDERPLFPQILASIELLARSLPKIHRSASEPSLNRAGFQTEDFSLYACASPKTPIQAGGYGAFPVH
A word on the IC50: it is the concentration that gives 50% inhibition. Higher therefore signals a need for much substance. For the molecule `CCn1c(-c2cccnc2[C@H](C)OC)c2c3cc(ccc31)-c1cc(O)cc(c1)C[C@H](NC(=O)[C@H](C(C)C)N(C)C(=O)C1CN(C(=O)CCl)C1)C(=O)N1CCC[C@H](N1)C(=O)OCC(C)(C)C2` [US20250163072, Example RM461], inhibition was half-maximal at 440 nM (IC50).

Consider `CCn1c(-c2cccnc2[C@H](C)OC)c2c3cc(ccc31)-c1cc(O)cc(c1)C[C@H](NC(=O)[C@H](C(C)C)N(C)C(=O)C1CCN(C(=O)C#CCN3CCOCC3)C1)C(=O)N1CCC[C@H](N1)C(=O)OCC(C)(C)C2` (stereo partly drawn) [US20250163072, Example RM018], for which half-maximal inhibition (IC50) was put at 268 nM.

Turning to `CC(C)[C@@H](C(=O)N[C@H]1Cc2cc(O)cc(c2)-c2ccc3c(C(C)(C)C#N)cn(c3c2)CC(C)(C)COC(=O)[C@@H]2CCCN(N2)C1=O)N1CCCC2(CCN(C(=O)CCl)C2)C1=O` (stereo partly drawn) [US20250163072, Example RM351], the 50% inhibitory concentration (IC50) worked out at 1780 nM.
